Reference: ChEMBL document CHEMBL4251605, “2-Substituted 7-trifluoromethyl-thiadiazolopyrimidones as alkaline phosphatase inhibitors. Synthesis, structure activity relationship and molecular docking study” (Eur J Med Chem, 2018)

What was measured:
Type in all cases: cell-based
[1] = target: Intestinal-type alkaline phosphatase (Homo sapiens, UniProt P09923); experiment: Inhibition of human IAP expressed in COS7 cells preincubated for 5 to 7 mins followed by CDP-star substrate addition measured after 15 to 20 mins by luminescence assay
[2] = target: T1, Alkaline phosphatase, tissue-nonspecific isozyme (Homo sapiens, UniProt P05186); experiment: Inhibition of human TNAP expressed in COS7 cells preincubated for 5 to 7 mins followed by CDP-star substrate addition measured after 15 to 20 mins by luminescence assay
T1 sequence (P05186 whole entry): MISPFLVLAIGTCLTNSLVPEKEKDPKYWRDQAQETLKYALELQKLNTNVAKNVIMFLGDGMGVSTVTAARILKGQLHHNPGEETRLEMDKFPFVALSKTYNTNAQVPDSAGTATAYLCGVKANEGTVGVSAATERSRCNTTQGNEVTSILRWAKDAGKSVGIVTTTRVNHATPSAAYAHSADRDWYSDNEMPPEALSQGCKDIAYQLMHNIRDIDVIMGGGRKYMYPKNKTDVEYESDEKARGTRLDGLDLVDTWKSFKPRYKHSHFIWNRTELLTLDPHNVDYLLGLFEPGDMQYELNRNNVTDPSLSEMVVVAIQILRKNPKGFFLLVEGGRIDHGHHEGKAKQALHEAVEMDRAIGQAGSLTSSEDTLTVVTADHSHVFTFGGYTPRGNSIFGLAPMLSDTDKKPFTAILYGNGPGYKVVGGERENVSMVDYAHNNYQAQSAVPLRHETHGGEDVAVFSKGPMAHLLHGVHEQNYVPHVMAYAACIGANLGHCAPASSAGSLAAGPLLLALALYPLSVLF

[3] = species on record: Homo sapiens; experiment: Selectivity ratio of IC50 for human IAP expressed in COS7 cells to IC50 for human TNAP expressed in COS7 cells

Chain of Intestinal-type alkaline phosphatase (P09923 whole entry): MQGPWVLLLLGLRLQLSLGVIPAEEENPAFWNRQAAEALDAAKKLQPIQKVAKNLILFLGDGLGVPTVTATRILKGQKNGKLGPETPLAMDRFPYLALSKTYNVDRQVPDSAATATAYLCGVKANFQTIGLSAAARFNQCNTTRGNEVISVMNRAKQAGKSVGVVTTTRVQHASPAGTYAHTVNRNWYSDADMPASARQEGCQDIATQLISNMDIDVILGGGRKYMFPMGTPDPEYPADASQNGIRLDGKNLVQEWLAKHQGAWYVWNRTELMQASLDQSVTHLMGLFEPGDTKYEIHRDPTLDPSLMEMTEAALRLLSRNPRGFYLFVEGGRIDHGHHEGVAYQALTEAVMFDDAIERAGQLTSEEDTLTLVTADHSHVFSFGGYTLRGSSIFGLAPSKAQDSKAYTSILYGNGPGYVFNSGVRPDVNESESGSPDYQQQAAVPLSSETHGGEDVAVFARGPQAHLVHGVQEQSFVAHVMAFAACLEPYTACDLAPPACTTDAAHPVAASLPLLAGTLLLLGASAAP

SMILES | IC50 [1] [nM] | IC50 [2] [nM] | Ratio IC50 [3]
Nc1ccc(Nc2nn3c(=O)cc(C(F)(F)F)nc3s2)cc1 | 710 | 330 | –
O=c1cc(C(F)(F)F)nc2sc(-c3cccc([N+](=O)[O-])c3)nn12 | 480 | 620 | –
CCCNc1nn2c(=O)cc(C(F)(F)F)nc2s1 | 310 | 1440 | –
O=c1cc(C(F)(F)F)nc2sc(-c3cccc(F)c3)nn12 | 740 | 1390 | –
CCCCCNc1nn2c(=O)cc(C(F)(F)F)nc2s1 | 760 | 610 | –
CCc1ccc(-c2nn3c(=O)cc(C(F)(F)F)nc3s2)cc1 | 4550 | > 100000 | –
CC(C)c1ccc(Nc2nn3c(=O)cc(C(F)(F)F)nc3s2)cc1 | 31500 | 1980 | –
N[C@@H](Cc1ccccc1)C(=O)O [PHENYLALANINE] | 80200 | – | –
CCCCNc1nn2c(=O)cc(C(F)(F)F)nc2s1 | 710 | 880 | –
COc1ccccc1-c1nn2c(=O)cc(C(F)(F)F)nc2s1 | > 100000 | 3480 | –
CCOc1ccc(Nc2nn3c(=O)cc(C(F)(F)F)nc3s2)cc1 | 2020 | 1580 | –
Cc1ccc(-c2nn3c(=O)cc(C(F)(F)F)nc3s2)cc1C | 1750 | 540 | –
CCCCN(CCCC)c1nn2c(=O)cc(C(F)(F)F)nc2s1 | 4630 | 1530 | –
N#Cc1cccc(-c2nn3c(=O)cc(C(F)(F)F)nc3s2)c1 | 1120 | 560 | –
COc1ccc(-c2nn3c(=O)cc(C(F)(F)F)nc3s2)cc1 | 480 | 280 | –

More lines, main results first:

IC50 [1] [nM] | IC50 [2] [nM] | SMILES | Ratio IC50 [3]
760 | 1150 | COc1cc(OC)cc(-c2nn3c(=O)cc(C(F)(F)F)nc3s2)c1 | –
240 | > 100000 | O=c1cc(C(F)(F)F)nc2sc(-c3ccc(OC(F)(F)F)cc3)nn12 | –
890 | 290 | C=CCNc1nn2c(=O)cc(C(F)(F)F)nc2s1 | 3
2220 | 2020 | CN(N)c1nn2c(=O)cc(C(F)(F)F)nc2s1 | –
460 | 520 | Cc1cc(C)cc(-c2nn3c(=O)cc(C(F)(F)F)nc3s2)c1 | –
1670 | 1120 | O=c1cc(C(F)(F)F)nc2sc(-c3cccc(-c4ccccc4)c3)nn12 | –
440 | 380 | COc1cccc(Nc2nn3c(=O)cc(C(F)(F)F)nc3s2)c1 | –
3750 | 450 | CN(C)CCNc1nn2c(=O)cc(C(F)(F)F)nc2s1 | –
> 100000 | 4520 | CCOc1ccccc1-c1nn2c(=O)cc(C(F)(F)F)nc2s1 | –
680 | 520 | O=c1cc(C(F)(F)F)nc2sc(-c3cccc(C(F)(F)F)c3)nn12 | –
430 | 210 | O=c1cc(C(F)(F)F)nc2sc(-c3ccccc3)nn12 | –
790 | 930 | CCOc1ccc(-c2nn3c(=O)cc(C(F)(F)F)nc3s2)cc1 | –
360 | 1060 | Cc1ccc(-c2nn3c(=O)cc(C(F)(F)F)nc3s2)cc1 | –
> 100000 | > 100000 | O=c1cc(C(F)(F)F)nc2sc(-c3ccccc3F)nn12 | –
